Data from US9067977B2, “Peptides derivatized with A-B-C-D- and their therapeutical use” (Novo Nordisk A/S, priority 2007, dated 2015).
Starred links: 1 amine or outer side, 2 acyl side, 3 side chain; linkers in the order of their positions; H or OH if unused. Non-standard residues stand in square brackets, D forms with d. Residues, ends and D or L forms follow the SMILES beside them. Groups on a side chain read outwards from the residue. *: point of attachment. X1 = O=C(CCCCCCCCCCCCCCCc1nnn[nH]1)NS(=O)(=O)CCCC(=O)*; PEG12 = NCCOCCOCCOCCOCCOCCOCCOCCOCCOCCOCCOCCOCCC(=O)O; C20 diacid = O=C(O)CCCCCCCCCCCCCCCCCCC(=O)*; γGlu = O=C(O)[C@H](CCC(=O)[*:2])N[*:1]; Desaminohistidyl = O=C(CCc1c[nH]cn1)*; AEEA = NCCOCCOCC(=O)O; Aib = CC(C)(N)C(=O)O; Inp = O=C(O)C1CCNCC1; GABA = NCCCC(=O)O

What follows are molecules tested against human serum albumin (HSA) (Homo sapiens, UniProt P02768) (assay: Albumin binding affinity, competition scintillation proximity assay). Conditions: not given.
human serum albumin (HSA), sequence (P02768 25-609): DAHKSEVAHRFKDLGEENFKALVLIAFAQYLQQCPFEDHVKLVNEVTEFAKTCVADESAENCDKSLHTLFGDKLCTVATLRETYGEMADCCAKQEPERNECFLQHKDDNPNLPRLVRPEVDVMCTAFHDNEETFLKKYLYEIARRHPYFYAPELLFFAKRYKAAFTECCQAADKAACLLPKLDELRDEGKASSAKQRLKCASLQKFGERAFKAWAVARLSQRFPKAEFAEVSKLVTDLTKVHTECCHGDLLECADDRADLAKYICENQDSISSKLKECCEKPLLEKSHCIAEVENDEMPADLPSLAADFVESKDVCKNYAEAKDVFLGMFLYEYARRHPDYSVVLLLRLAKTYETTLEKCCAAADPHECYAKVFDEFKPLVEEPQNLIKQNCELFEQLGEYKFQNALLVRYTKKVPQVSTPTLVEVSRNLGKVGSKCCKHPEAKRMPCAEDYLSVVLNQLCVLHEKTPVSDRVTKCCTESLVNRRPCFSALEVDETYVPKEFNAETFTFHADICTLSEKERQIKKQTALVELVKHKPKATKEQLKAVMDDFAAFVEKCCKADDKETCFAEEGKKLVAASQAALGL

Row | SMILES | EC50
1 | CC[C@H](C)[C@H](NC(=O)[C@H](Cc1ccccc1)NC(=O)[C@H](CCC(=O)O)NC(=O)[C@H](CCCNC(=N)N)NC(=O)[C@H](C)NC(=O)[C@H](C)NC(=O)[C@H](CCC(N)=O)NC(=O)CNC(=O)[C@H](CCC(=O)O)NC(=O)[C@H](CC(C)C)NC(=O)[C@H](Cc1ccc(O)cc1)NC(=O)[C@H](CO)NC(=O)[C@H](CO)NC(=O)[C@@H](NC(=O)[C@H](CC(=O)O)NC(=O)[C@H](CO)NC(=O)[C@@H](NC(=O)[C@H](Cc1ccccc1)NC(=O)[C@@H](NC(=O)CNC(=O)[C@H](CCC(=O)O)NC(=O)[C@H](C)NC(=O)CCc1c[nH]cn1)[C@@H](C)O)[C@@H](C)O)C(C)C)C(=O)N[C@@H](C)C(=O)N[C@@H](Cc1c[nH]c2ccccc12)C(=O)N[C@@H](CC(C)C)C(=O)N[C@H](C(=O)N[C@@H](CCCNC(=N)N)C(=O)NCC(=O)N[C@@H](CCCNC(=N)N)C(=O)N[C@@H](CCCCNC(=O)COCCOCCNC(=O)COCCOCCNC(=O)CC[C@H](NC(=O)C1CCN(C(=O)CCCCCCCCCCCCCCCCCCC(=O)O)CC1)C(=O)O)C(=O)O)C(C)C [Example 60, N-epsilon37-(2-{2-[2-(2-{2-[2-((S)-4-Carboxy-4-{[1-(19-carboxynonadecanoyl)piperidine-4-carbonyl]amino}butyrylamino)ethoxy]ethoxy}acetylamino)ethoxy]ethoxy}acetyl) [DesaminoHis7,Arg26,Arg34,Lys37]GLP-1-(7-37)] | 300 to 800 nM
2 | CC[C@H](C)[C@H](NC(=O)[C@H](Cc1ccccc1)NC(=O)[C@H](CCC(=O)O)NC(=O)[C@H](CCCNC(=N)N)NC(=O)[C@H](C)NC(=O)[C@H](C)NC(=O)[C@H](CCC(N)=O)NC(=O)CNC(=O)[C@H](CCC(=O)O)NC(=O)[C@H](CC(C)C)NC(=O)[C@H](Cc1ccc(O)cc1)NC(=O)[C@H](CO)NC(=O)[C@H](CO)NC(=O)[C@@H](NC(=O)[C@H](CC(=O)O)NC(=O)[C@H](CO)NC(=O)[C@@H](NC(=O)[C@H](Cc1ccccc1)NC(=O)[C@@H](NC(=O)CNC(=O)[C@H](CCC(=O)O)NC(=O)[C@H](C)NC(=O)CCc1cnc[nH]1)[C@@H](C)O)[C@@H](C)O)C(C)C)C(=O)N[C@@H](C)C(=O)N[C@@H](Cc1c[nH]c2ccccc12)C(=O)N[C@@H](CC(C)C)C(=O)N[C@H](C(=O)N[C@@H](CCCNC(=N)N)C(=O)NCC(=O)N[C@@H](CCCNC(=N)N)C(=O)NCC(=O)N[C@@H](CCCCNC(=O)COCCOCCNC(=O)COCCOCCNC(=O)CC[C@H](NC(=O)[C@H]1CC[C@H](CNC(=O)CCCCCCCCCCCCCCCCCCC(=O)O)CC1)C(=O)O)C(N)=O)C(C)C [Example 28] | > 2000 nM
3 | CC[C@H](C)[C@H](NC(=O)[C@H](Cc1ccccc1)NC(=O)[C@H](CCC(=O)O)NC(=O)[C@H](CCCNC(=N)N)NC(=O)[C@H](C)NC(=O)[C@H](C)NC(=O)[C@H](CCC(N)=O)NC(=O)[C@H](CCC(=O)O)NC(=O)[C@H](CCC(=O)O)NC(=O)[C@H](CC(C)C)NC(=O)[C@H](Cc1ccc(O)cc1)NC(=O)[C@H](CO)NC(=O)[C@H](CO)NC(=O)[C@@H](NC(=O)[C@H](CC(=O)O)NC(=O)[C@H](CO)NC(=O)[C@@H](NC(=O)[C@H](Cc1ccccc1)NC(=O)[C@@H](NC(=O)CNC(=O)[C@H](CCC(=O)O)NC(=O)C(C)(C)NC(=O)[C@@H](N)Cc1c[nH]cn1)[C@@H](C)O)[C@@H](C)O)C(C)C)C(=O)N[C@@H](CCCCNC(=O)COCCOCCNC(=O)COCCOCCNC(=O)C[C@H](NC(=O)C1CCN(C(=O)CCCCCCCCCCCCCCCCCCC(=O)O)CC1)C(=O)O)C(=O)N[C@@H](Cc1c[nH]c2ccccc12)C(=O)N[C@@H](CC(C)C)C(=O)N[C@H](C(=O)N[C@@H](CCCCN)C(=O)NCC(=O)N[C@@H](CCCNC(=N)N)C(=O)NCC(=O)O)C(C)C [Example 9, N-epsilon30{2-[2-(2-{2-[2-((S)-3-carboxy-3-{[1-(19-carboxynonadecanoyl)piperidine-4-carbonyl]amino}propionylamino)ethoxy]ethoxy}acetylamino)ethoxy]ethoxy}acetyl [Aib8,Glu22,Arg26,Lys30]GLP-1-(7-37)] | 150 to 300 nM

Continued, values first:

Row | EC50 | SMILES
4 | 300 to 800 nM | CC[C@H](C)[C@H](NC(=O)[C@H](Cc1ccccc1)NC(=O)[C@H](CCC(=O)O)NC(=O)[C@H](CCCNC(=N)N)NC(=O)[C@H](C)NC(=O)[C@H](C)NC(=O)[C@H](CCC(N)=O)NC(=O)[C@H](CCC(=O)O)NC(=O)[C@H](CCC(=O)O)NC(=O)[C@H](CC(C)C)NC(=O)[C@H](Cc1ccc(O)cc1)NC(=O)[C@H](CO)NC(=O)[C@H](CO)NC(=O)[C@@H](NC(=O)[C@H](CC(=O)O)NC(=O)[C@H](CO)NC(=O)[C@@H](NC(=O)[C@H](Cc1ccccc1)NC(=O)[C@@H](NC(=O)CNC(=O)[C@H](CCC(=O)O)NC(=O)C(C)(C)NC(=O)[C@@H](N)Cc1c[nH]cn1)[C@@H](C)O)[C@@H](C)O)C(C)C)C(=O)N[C@@H](CCC(=O)O)C(=O)N[C@@H](Cc1c[nH]c2ccccc12)C(=O)N[C@@H](CC(C)C)C(=O)N[C@H](C(=O)N[C@@H](CCCCN)C(=O)NCC(=O)N[C@@H](CCCNC(=N)N)C(=O)N1CCC[C@H]1C(=O)N[C@@H](CCCCNC(=O)CCOCCOCCOCCOCCOCCOCCOCCOCCOCCOCCOCCOCCNC(=O)CC[C@H](NC(=O)CC[C@H](NC(=O)CCCNC(=O)CCCS(=O)(=O)NC(=O)CCCCCCCCCCCCCCCc1nnn[nH]1)C(=O)O)C(=O)O)C(=O)O)C(C)C [Example 52] (H-H[Aib]EGTFTSDVSSYLEEQAAREFIEWLVKGRPK([PEG12-γGlu-γGlu-GABA-X1])-OH)
5 | 300 to 800 nM | CC[C@H](C)[C@H](NC(=O)[C@H](Cc1ccccc1)NC(=O)[C@H](CCC(=O)O)NC(=O)[C@H](CCCNC(=N)N)NC(=O)[C@H](C)NC(=O)[C@H](C)NC(=O)[C@H](CCC(N)=O)NC(=O)[C@H](CCC(=O)O)NC(=O)[C@H](CCC(=O)O)NC(=O)[C@H](CC(C)C)NC(=O)[C@H](Cc1ccc(O)cc1)NC(=O)[C@H](CO)NC(=O)[C@H](CO)NC(=O)[C@@H](NC(=O)[C@H](CC(=O)O)NC(=O)[C@H](CO)NC(=O)[C@@H](NC(=O)[C@H](Cc1ccccc1)NC(=O)[C@@H](NC(=O)CNC(=O)[C@H](CCC(=O)O)NC(=O)[C@H](C)NC(=O)CCc1c[nH]cn1)[C@@H](C)O)[C@@H](C)O)C(C)C)C(=O)N[C@@H](C)C(=O)N[C@@H](Cc1c[nH]c2ccccc12)C(=O)N[C@@H](CC(C)C)C(=O)N[C@H](C(=O)N[C@@H](CCCNC(=N)N)C(=O)NCC(=O)N[C@@H](CCCNC(=N)N)C(=O)NCC(=O)N[C@@H](CCCCNC(=O)COCCOCCNC(=O)COCCOCCNC(=O)CC[C@H](NC(=O)C1CCN(C(=O)CCCCCCCCCCCCCCCCCCC(=O)O)CC1)C(=O)O)C(=O)O)C(C)C [Example 7, [DesaminoHis7,Glu22,Arg26,Arg34]GLP-1-(7-37)-Lys(2-{2-[2-(2-{2-[2-((S)-4-Carboxy-4-{[1-(19-carboxynonadecanoyl)piperidine-4-carbonyl]amino}butyrylamino)ethoxy]ethoxy}acetylamino)ethoxy]ethoxy}acetyl)] (Desaminohistidyl-AEGTFTSDVSSYLEEQAAREFIAWLVRGRGK([AEEA-AEEA-γGlu-Inp-C20 diacid])-OH)
6 | 800 to 2000 nM | CC[C@H](C)[C@H](NC(=O)[C@H](Cc1ccccc1)NC(=O)[C@H](CCC(=O)O)NC(=O)[C@H](CCCNC(=N)N)NC(=O)[C@H](C)NC(=O)[C@H](C)NC(=O)[C@H](CCC(N)=O)NC(=O)[C@H](CCC(=O)O)NC(=O)[C@H](CCC(=O)O)NC(=O)[C@H](CC(C)C)NC(=O)[C@H](Cc1ccc(O)cc1)NC(=O)[C@H](CO)NC(=O)[C@H](CO)NC(=O)[C@@H](NC(=O)[C@H](CC(=O)O)NC(=O)[C@H](CO)NC(=O)[C@@H](NC(=O)[C@H](Cc1ccccc1)NC(=O)[C@@H](NC(=O)CNC(=O)[C@H](CCC(=O)O)NC(=O)[C@H](C)NC(=O)CCc1c[nH]cn1)[C@@H](C)O)[C@@H](C)O)C(C)C)C(=O)N[C@@H](C)C(=O)N[C@@H](Cc1c[nH]c2ccccc12)C(=O)N[C@@H](CC(C)C)C(=O)N[C@H](C(=O)N[C@@H](CCCNC(=N)N)C(=O)NCC(=O)N[C@@H](CCCNC(=N)N)C(=O)N[C@@H](CCCCNC(=O)COCCOCCNC(=O)COCCOCCNC(=O)CC[C@H](NC(=O)[C@H]1CC[C@H](CNC(=O)CCCCCCCCCCCCCCCCCCC(=O)O)CC1)C(=O)O)C(=O)O)C(C)C [Example 26, N-epsilon37-[2-(2-{2-[2-(2-{2-[(S)-4-Carboxy-4-({trans-4-[(19-carboxy-nonadecanoylamino)methyl]cyclohexanecarbonyl}amino)butyrylamino]ethoxy}ethoxy)acetylamino]ethoxy}ethoxy)acetyl][DesaminoHis7,Glu22,Arg26,Arg34,Lys37]GLP-1-(7-37)]

Same assay, conditions: human, biotinylated human serum albumin on streptavidin-SPA beads, pH 7.4

Row | EC50 at 20 h | SMILES
7 | 800 to 2000 nM | CC[C@H](C)[C@H](NC(=O)[C@H](Cc1cccc(C(F)(F)F)c1)NC(=O)[C@H](CCC(=O)O)NC(=O)[C@H](CCCNC(=N)N)NC(=O)[C@H](C)NC(=O)[C@H](C)NC(=O)[C@H](CCC(N)=O)NC(=O)[C@H](CCC(=O)O)NC(=O)[C@H](CCC(=O)O)NC(=O)[C@H](CC(C)C)NC(=O)[C@H](Cc1ccc(O)cc1)NC(=O)[C@H](CO)NC(=O)[C@H](CO)NC(=O)[C@@H](NC(=O)[C@H](CC(=O)O)NC(=O)[C@H](CO)NC(=O)[C@@H](NC(=O)[C@H](Cc1ccccc1)NC(=O)[C@@H](NC(=O)CNC(=O)[C@H](CCC(=O)O)NC(=O)[C@H](C)NC(=O)CCc1c[nH]cn1)[C@@H](C)O)[C@@H](C)O)C(C)C)C(=O)N[C@@H](C)C(=O)N[C@@H](Cc1c[nH]c2ccccc12)C(=O)N[C@@H](CC(C)C)C(=O)N[C@H](C(=O)N[C@@H](CCCNC(=N)N)C(=O)NCC(=O)N[C@@H](CCCNC(=N)N)C(=O)N[C@@H](CCCCNC(=O)COCCOCCNC(=O)COCCOCCNC(=O)C[C@@H](NC(=O)C1CCN(C(=O)CCCCCCCCCCCCCCCCC(=O)O)CC1)C(=O)O)C(N)=O)C(C)C [Example 6, N-epsilon37-[2-(2-[2-(2-[2-(2-((R)-3-[1-(17-Carboxyheptadecanoyl)piperidin-4-ylcarbonylamino]3-carboxypropionylamino)ethoxy)ethoxy]acetylamino)ethoxy]ethoxy)acetyl][DesaminoHis7, Glu22 Arg26, Arg 34, Phe(m-CF3)28]GLP-1-(7-37)amide]
